Reference: patent US8828987B2, “Pyridine amide derivatives as EP4 receptor antagonists” (Rottapharm Biotech S.R.L., priority 2010, dated 2014)

Experiments:
[1] = target: T1, human EP4 receptor (Homo sapiens, UniProt P35408); assay: [3H]-Prostaglandin E2 membrane binding assay (human EP4/HEK293 transfectant membranes); details: [3H]-PGE2 1 nM, hEP4/HEK293 membranes; Ki by Cheng-Prusoff; read-out: Binding pKi (converted)
T1 construct: expressed in transfected cells; membrane fraction used
From the text: (§1) Stable Expression of Human EP4 Receptors in the Human Embryonic Kidney (HEK293) Cell Line
(§2) The cDNA clone of human EP4 receptor (NM_000958.2) was obtained from Invitrogen™: Ultimate™ ORF Clone Collection—Clone ID IOH46525. The coding sequence was subcloned in expression vector pcDNA™6.2/V5-DEST by Gateway technology (Invitrogen™).
(§3) Human embryonic kidney cells (HEK-293) were stably transfected with expression vector for human EP4 receptor in according to the method described in FuGENE®6 Transfection Reagent's manual (Roche Applied Science®).
(§4) Preparation of Membrane Fraction:
(§5) The EP4 transfected cells were grown in Dulbecco's modified Eagle's medium containing 10% fetal bovine serum and 10 μg/ml Blasticidin S HCl (selection medium) at 37° C. in a humidified atmosphere of 5% CO2 in air.
(§6) For the membrane preparation, cells in flask were harvested by hypotonical/mechanical lysis with chilled (4° C.) TE buffer (5 mM TRIS, 5 mM etylenediamine tetra-acetic acid (EDTA), pH 7.4).
(§7) Cells were detached and lysed with 10 ml of hypotonic lysis buffer and by scraping. The cell lysate was vortexed for 30 sec and centrifuged at 40000×g at 4° C. for 22 min.
a) Membrane Binding Assay[3H]-Prostaglandin E2
The membrane pellet was resuspended in the same buffer (5 mM TRIS, 5 mM ethylenediamine tetra-acetic acid (EDTA), pH 7.4), and protein concentration was determined by Bradford method (Bio-Bad® assay).
This membrane preparation was stored at −80° C. freezer until use for binding assay.
([^3H]-PGE2) membranes binding assays toward hEP4 receptors (human EP4/HEK293 transfectant, see above) and hEP2 receptors (human EP2/HEK293 transfectant, purchased from PerkinElmer Inc) were performed in 10 mM MES-KOH buffer pH6, containing 10 mM MgCl2 and 1 mM CaCl2 for EP4 binding assay or 50 mM Tris-Cl, BSA 0.5% for EP2 binding assay (according to supplier indication).
Ten microgram of protein from membrane fractions were incubated in a total volume of 0.1 ml (EP4) or 0.2 ml (EP2) with 1 nM (EP4) or 3 nM (EP2) [^3H]-PGE2 (PerkinElmer Inc, 171 Ci/mmol). In both assays to determine the total binding or non specific binding, 1% DMSO or 1 μM prostaglandin E2 (EP4) or 100 μM (EP2) were added to reaction mixtures, respectively. Incubation was conducted in a polypropylene 96 multiwell for 90 min (EP4) or 60 min (EP2) at room temperature prior to separation of the bound and free radioligand by vacuum manifold rapid filtration on glass fiber filters (Unifilter GFB96, PerkinElmer Inc) pre-soaked in 0.3% polyethyleneimine. Filters were washed with ice cold buffer pH 7.4 (50 mM HEPES, NaCl 500 mM, BSA 0.1% for EP4 binding assay or 50 mM Tris-Cl for EP2 binding assays) and the residual [^3H]-PGE2 binding determined by solid scintillation counter (TopCount, PerkinElmer Inc).
The affinity (Ki) of each compound was calculated according to the Cheng-Prousoff equation: Ki=IC50/(1+([C]/Kd)). Results were expressed as pKi (−log 10 Ki (M)
Compounds of example 1 to 82 were tested according to method of example 83a in a final concentration range from 1 nM to 1 μM.

[2] = target: T1, human EP4 receptor; assay: cAMP assay (AlphaScreen) on human EP4 membrane of transfected cells, antagonism of PGE2; format: biochemical; details: HEK293 hEP4 cell membrane stimulated with PGE2 3 nM; read-out: functional IC50
From the text: as §1, §2, §3, §4, §5, §6, §7
b) cAMP Assay on Human EP4 Membrane of Transfected Cells.
The assay is based on the competition between endogenous cAMP and exogenously added biotinylated cAMP. The capture of cAMP is achieved by using a specific antibody conjugated to […] beads.
Cell membranes prepared as described above, were resuspended in 1 ml stimulation buffer (HBSS 1×+BSA 0.1%+IBMX 0.5 mM+HEPES 5 mM+MgCl2 10 mM+GTP 1 nM+GDP 10 μM+ATP 100 μM−pH 7.4). Cell membranes were dispensed into white 384-well microplates at final concentration of 1 μg/well and used for the determination of cAMP with the alphascreen cAMP functional assay (EnVision—PerkinElmer). Cell membrane/anti-cAMP Acceptor beads mix (5 μl) and a mixture of analysed compounds (dissolved in 100% DMSO to a final maximal concentration of 0.01% DMSO)/PGE2 (5 μl) were incubated at room temperature (22-23° C.) for 30 min in the dark. The Biotinylated-cAMP and donor beads (15 μl) were dispensed into each well to start the competition reaction. After 1 h incubation RT (22-23° C.) in the dark the plate was read using EnVision platform to determine the cAMP level (excitation: 680 nm; emission: 520,620 nm).
cAMP standard curve (concentration range from 1×10-6 to 1×10-11 M in. log intervals) with a negative control (no cAMP) a positive control:forskolin 10 μM
Antagonism studies were performed stimulating HEK293 cell membrane with PGE2 3 nM. The AlphaScreen signal is plotted as a function of log concentration of cAMP and functional IC50 is determined. IC50 value is calculated by linear regression.
Some compounds were tested according to method of example 83b.

T1 sequence (P35408 whole entry): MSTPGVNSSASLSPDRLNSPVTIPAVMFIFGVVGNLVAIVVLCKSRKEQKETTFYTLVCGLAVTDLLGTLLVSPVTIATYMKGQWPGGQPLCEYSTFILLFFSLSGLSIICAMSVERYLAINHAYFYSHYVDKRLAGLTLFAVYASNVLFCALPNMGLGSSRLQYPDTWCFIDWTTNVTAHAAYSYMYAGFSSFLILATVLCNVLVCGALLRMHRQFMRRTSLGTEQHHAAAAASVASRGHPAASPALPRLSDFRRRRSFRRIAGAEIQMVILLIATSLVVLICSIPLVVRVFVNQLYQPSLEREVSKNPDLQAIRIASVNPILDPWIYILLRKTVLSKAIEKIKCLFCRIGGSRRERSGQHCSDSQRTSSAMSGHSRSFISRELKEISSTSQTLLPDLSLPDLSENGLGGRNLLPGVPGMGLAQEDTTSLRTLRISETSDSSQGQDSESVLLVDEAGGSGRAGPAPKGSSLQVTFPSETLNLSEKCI

SMILES	Ki [1] [nM]	IC50 [2] [nM]
Cc1cc(F)ccc1N(C)C1CN(c2ncc(Cl)cc2C(=O)NC2(c3ccc(C(=O)O)cc3)CC2)C1 [E 37, 4-(1-(5-chloro-2-(3-((4-fluoro-2-methylphenyl)(methyl)amino)azetidin-1-yl)nicotinamido)cyclopropyl)benzoic acid]	12.6	31
O=C(O)c1ccc(C2(NC(=O)c3cc(Cl)cnc3N3CC(Oc4ccc(F)c(C(F)(F)F)c4)C3)CC2)cc1 [E 17, 4-(1-(5-chloro-2-(3-(4-fluoro-3-(trifluoromethyl)phenoxy)azetidin-1-yl)nicotinamido)cyclopropyl)benzoic acid]	20	82
O=C(O)c1ccc(C2(NC(=O)c3cc(C(F)(F)F)cnc3N3CC(Oc4ccc(Cl)cc4)C3)CC2)cc1 [E 40, 4-(1-(2-(3-(4-chlorophenoxy)azetidin-1-yl)-5-(trifluoromethyl)nicotinamido)cyclopropyl)benzoic acid]	5.01	10
O=C(O)c1ccc(C2(NC(=O)c3cc(Cl)cnc3N3CCC(Oc4cccc(F)c4)C3)CC2)cc1 (single isomer, unassigned) [E 69, 4-(1-(5-chloro-2-(3-(3-fluorophenoxy)pyrrolidin-1-yl)nicotinamido)cyclopropyl)benzoic acid]	50.1	308
O=C(O)c1ccc(C2(NC(=O)c3cc(C(F)(F)F)cnc3N3CC(Nc4ccc(F)cc4F)C3)CC2)cc1 [E 52, 4-(1-(2-(3-((2,4-difluorophenyl)amino)azetidin-1-yl)-5-(trifluoromethyl)nicotinamido)cyclopropyl)benzoic acid]	20	74
O=C(O)c1ccc(C2(NC(=O)c3cc(Cl)cnc3N3CCCC3c3ccccc3)CC2)cc1 (single isomer, unassigned) [E 1, 4-(1-(5-chloro-2-(2-phenylpyrrolidin-1-yl)nicotinamido)cyclopropyl)benzoic acid]	398	235
O=C(O)c1ccc(C2(NC(=O)c3cc(C(F)(F)F)cnc3N3CC(Nc4cccc(F)c4)C3)CC2)cc1 [E 49, 4-(1-(2-(3-((3-fluorophenyl)amino)azetidin-1-yl)-5-(trifluoromethyl)nicotinamido)cyclopropyl)benzoic acid]	25.1	69
O=C(O)c1ccc(C2(NC(=O)c3cc(Cl)cnc3N3CCC(Oc4cccc(F)c4)C3)CC2)cc1 (single isomer, unassigned) [E 71, 4-(1-(5-chloro-2-(3-(3-fluorophenoxy)pyrrolidin-1-yl)nicotinamido)cyclopropyl)benzoic acid]	39.8	110
O=C(O)c1ccc(C2(NC(=O)c3cc(Cl)cnc3N3CC(Nc4ccc(F)cc4F)C3)CC2)cc1 [E 35, 4-(1-(5-chloro-2-(3-((2,4-difluorophenyl)amino)azetidin-1-yl)nicotinamido)cyclopropyl)benzoic acid]	6.31	59
Cc1cc(C(F)(F)F)ccc1NC1CN(c2ncc(Cl)cc2C(=O)NC2(c3ccc(C(=O)O)cc3)CC2)C1 [E 36, 4-(1-(5-chloro-2-(3-((2-methyl-4-(trifluoromethyl)phenyl)amino)azetidin-1-yl)nicotinamido)cyclopropyl)benzoic acid]	3.98	30
O=C(O)c1ccc(C2(NC(=O)c3cc(C(F)(F)F)cnc3N3CC(Nc4ccc(F)cc4)C3)CC2)cc1 [E 50, 4-(1-(2-(3-((4-fluorophenyl)amino)azetidin-1-yl)-5-(trifluoromethyl)nicotinamido)cyclopropyl)benzoic acid]	12.6	23
C[C@H](NC(=O)c1cc(Cl)cnc1N1CC(Oc2ccc(F)cc2)C1)c1ccc(C(=O)O)cc1 [E 11, (S)-4-(1-(5-chloro-2-(3-(4-fluorophenoxy)azetidin-1-yl)nicotinamido)ethyl)benzoic acid]	100	386

More lines, now with the values ahead:

Ki [1] [nM]	IC50 [2] [nM]	SMILES
5.01	38	O=C(O)c1ccc(C2(NC(=O)c3cc(Cl)cnc3N3CC(Oc4cccc(C(F)(F)F)c4)C3)CC2)cc1 [E 14, 4-(1-(5-chloro-2-(3-(3-(trifluoromethyl)phenoxy)azetidin-1-yl)nicotinamido)cyclopropyl)benzoic acid]
63.1	191	O=C(O)c1ccc(C2(NC(=O)c3cc(Cl)cnc3N3CC(Oc4cccc(N5CCNCC5)c4)C3)CC2)cc1 [E 21, 4-(1-(5-chloro-2-(3-(3-(piperazin-1-yl)phenoxy)azetidin-1-yl)nicotinamido)cyclopropyl)benzoic acid]
3.16	10	O=C(O)c1ccc(C2(NC(=O)c3cc(C(F)(F)F)cnc3N3CC(Oc4ccc(F)c(F)c4)C3)CC2)cc1 [E 45, 4-(1-(2-(3-(3,4-difluorophenoxy)azetidin-1-yl)-5-(trifluoromethyl)nicotinamido)cyclopropyl)benzoic acid]
10	90	O=C(O)c1ccc(C2(NC(=O)c3cc(Cl)cnc3N3CCC[C@@H]3COc3cccc(F)c3)CC2)cc1 [E 77, 4 (R)-4-(1-(5-chloro-2-(2-((3-fluorophenoxy)methyl)pyrrolidin-1-yl)nicotinamido)cyclopropyl)benzoic acid]
31.6	145	O=C(O)c1ccc(C2(NC(=O)c3cc(Cl)cnc3N3CCC(Oc4cccc(C(F)(F)F)c4)C3)CC2)cc1 (single isomer, unassigned) [E 63, 4-(1-(5-chloro-2-(3-(3-(trifluoromethyl)phenoxy)pyrrolidin-1-yl)nicotinamido)cyclopropyl)benzoic acid]
31.6	119	O=C(O)c1ccc(CNC(=O)c2cc(Cl)cnc2N2CC(Oc3cccc(F)c3)C2)cc1 [E 22, 4-((5-chloro-2-(3-(3-fluorophenoxy)azetidin-1-yl)nicotinamido)methyl)benzoic acid]
31.6	80	O=C(O)c1ccc(C2(NC(=O)c3cc(F)cnc3N3CC(Oc4cccc(F)c4)C3)CC2)cc1 [E 53, 4-(1-(5-fluoro-2-(3-(3-fluorophenoxy)azetidin-1-yl)nicotinamido)cyclopropyl)benzoic acid]
31.6	99	O=C(O)c1ccc(C2(NC(=O)c3cc(Cl)cnc3N3CCC(Oc4cccc(C(F)(F)F)c4)C3)CC2)cc1 (single isomer, unassigned) [E 64, 4-(1-(5-chloro-2-(3-(3-(trifluoromethyl)phenoxy)pyrrolidin-1-yl)nicotinamido)cyclopropyl)benzoic acid]
